Experimental data from a melting point compilation (Tetko et al.; mined from patent text by program, amines drawn as free bases though some values may be those of a salt).
Residues, ends and D or L forms follow the SMILES beside them. *: point of attachment. Boc = CC(C)(C)OC(=O)*; OBn = c1ccc(CO*)cc1; Bn = c1ccc(C*)cc1

Row | melting point [°C] | Structure (SMILES)
1 | 164 to 166 | COc1ccc(C2=NN(C3CCN(C(=O)NC(C)(C)C)CC3)C(=O)[C@@H]3CC=CC[C@H]23)cc1OC
2 | 165 | Nc1c(Cl)cc(C(=O)Cl)cc1Cl
3 | 150 to 152 | N#Cc1ccc(OCC(=O)O)cc1F
4 | 65 to 66.5 | CC1=C(CCO)c2cc(F)ccc2C1
5 | 76 to 78 | CN1C(=S)C(C)(C)N=C1SCc1ccccc1N(C)C
6 | 158 to 160 | O=C(c1ccc(-c2ccc3nnn(Cc4ccc5ncccc5c4)c3n2)cc1)N1CCN(CCO)CC1
7 | 193 to 195 | CC[C@H](C)[C@H](NC(=O)O[C@@H](CC(C)C)C(=O)O)C(=O)NC1CCCCC1
8 | 220 to 223 | COc1cccc(-c2c3c(cc4ccc(O)cc24)-c2ccc(O)cc2CO3)c1
9 | 214 to 215 | O=C(O)c1cc(Br)ccc1COc1ccc(Br)cc1
10 | 140 to 141 | Cc1oc(-c2ccccc2)nc1COc1ccc(COc2ccc(OCc3ccccc3)cc2CC(=O)O)cc1
11 | 183 to 186 | COC(=O)c1cc(O)cc(C(=O)OC)c1[N+](=O)[O-]
12 | 202 to 203 | CC1(C)Oc2ccc(C#N)cc2[C@@H](n2cnccc2=O)[C@@H]1O (relative stereo)
13 | 235 to 237 | NC(=O)/C=C1/c2cc(F)cc(F)c2CC1O (stereo not given)
14 | 99 to 101 | CCOC(=O)COc1ccc(Cn2c(-c3ccc(Cl)cc3)c(C)c3cc(OCc4ccccc4)ccc32)cc1
15 | 160 | c1ccc2c(c1)OCC(CN1CCC(CNc3nc4cc5c(cc4s3)OCO5)CC1)O2 (stereo not given)
16 | 211 to 214 | C(=C\c1cc(/C=C/c2ccc3cc[nH]c3c2)n[nH]1)/c1ccc(OCc2ccccn2)cc1
17 | 93 to 94 | COc1c(Br)cc(N)cc1C(C)=O
18 | > 340 | N#Cc1ccc(-c2ccc(O)c(-c3nc4cc(C#N)ccc4[nH]3)c2)cc1
19 | 239 to 240 | O=C(O)c1cccc(-c2nnc(-c3ccc(C(F)(F)F)cc3)o2)c1
20 | 86 to 89 | Cc1nnc(-c2cccc(I)c2)s1
21 | 166 to 168 | COc1ccc2oc(=O)c(S(=O)(=O)Nc3ccc(Br)cc3)cc2c1
22 | 59 to 61 | CC(C)(C)[Si](OCCOc1ccc(N)cn1)(c1ccccc1)c1ccccc1
23 | 213 to 214 | O=Cc1ccc(-c2ccc(C=O)s2)s1
24 | 188 to 190 | CC(C)Oc1ccc(Oc2ccc3c(c2)c(C(=O)O)c(CC(=O)O)n3-c2cccc(Cl)c2)cc1

Row | melting point [°C] | Structure (SMILES)
25 | 178 to 181 | Clc1cc(N2CCOCC2)nc(-n2cnc3ccccc32)n1
26 | 141 to 143 | O=[N+]([O-])c1c(O)c(O)cc2ccccc12
27 | 280 | COc1ccc(-c2nc(S)[nH]c2-c2ccncc2)cc1
28 | 131 to 133 | CCCCC(CC)C(=O)Nc1ccc2ccn(Cc3ccc(C(=O)CS(=O)(=O)c4ccccc4)cc3OC)c2c1 (stereo not given)
29 | 124 | CN1CCN(c2cccc3ccc(C(=O)c4ccccc4)cc23)CC1
30 | 108 to 110 | COc1ccc(C2SCC(C(=O)O)N2C(=O)c2ccccc2)cc1 (stereo not given)
31 | 240 to 250 | C[C@@H](NC(=O)c1c[nH]c2ncc(-c3nn(CCCO)c4cc(Cl)ccc34)nc12)C(=O)N1CC(C#N)C1
32 | 134 to 136 | CC(C)=CCn1ncc(-c2ccc(S(N)(=O)=O)c(F)c2)c(-c2ccc(F)cc2)c1=O
33 | 179 to 180 | CCN1CCNC(=O)C1c1ccc(Nc2nc(-c3ccc(F)c(NC(=O)c4cc5c(s4)CCCC5)c3C)cn(C)c2=O)cc1 (stereo not given)
34 | 104 | C[Si](C)(C)C#Cc1cn(C2CC(O)C(COC(c3ccccc3)(c3ccccc3)c3ccccc3)O2)c(=O)[nH]c1=O (stereo not given)
35 | 170 to 172 | CC1NN2C=CC=NC2C1C#N (stereo not given)
36 | 148 | C[C@H](COc1ccc(C=C2SC(=S)N(CC(=O)O)C2=O)cc1OCc1ccccc1)c1ccccc1
37 | 154 | CN(C)CCCNC(=O)[C@@H]1CCCN1S(=O)(=O)c1ccc(Cl)c(COc2cccc3c2NC(C)(C)C=C3n2cncn2)c1Cl
38 | 177 | Cc1cc2c(cc1Br)N1CCc3cccc(c31)C(N1CCN(C)CC1)=N2
39 | 200 to 202 | O=C1Cc2cc(NC(=O)C(=O)N3CCC(COc4ccccc4)CC3)ccc2N1
40 | 228 to 231 | S=C1Nc2ccccc2Cn2cccc21
41 | 125 to 127 | CCOC(=O)C1=C(C)NC(C)=C(C(=O)OC)C1c1ccccc1Cl (stereo not given)
42 | 102 to 103 | COCCOc1ccc(CCNC(=O)OCc2ccccc2)c(Oc2ncc(C(F)(F)F)cc2Cl)c1
43 | 165 to 167 | CCN1C(=O)C(=O)c2cc(S(=O)(=O)N(C)C)ccc21
44 | > 250 | CCc1nnc2c(Cl)nc3ccc(Cl)cc3n12
45 | 73 to 75 | CCC(=O)C1CN(C(c2ccccc2)c2ccccc2)C1
46 | 90.5 to 91 | COc1ccc(C(=O)N2CCCC2=O)cc1OC(=O)c1ccccc1
47 | 135 to 136 | O=C(CCN1CCN(Cc2ccccc2)CC1)c1ccc2oc3ccccc3c2c1
48 | 157 to 163 | CC(=O)NC(Cl)CCC(=O)c1ccccc1 (stereo not given)

Row | melting point [°C] | Structure (SMILES)
49 | 122 to 123 | O=[N+]([O-])c1ccc(Sc2nccn2Cc2ccccc2)cc1
50 | 100 to 103 | CC(C)CC(NC(=O)C(Cc1ccc(OCc2ccccc2)cc1)NC(=O)OC(C)(C)C)C(=O)OCc1ccccc1 (stereo not given) (Boc-Tyr(Bn)-Leu-OBn; configuration not given here)
51 | 124 to 125 | OC(c1ccc(F)cc1)(c1ccc(F)cc1)C1SCSCS1
52 | 77 to 78 | COc1ccc(CN2N=C(c3ccc(OC)c(OC)c3)[C@@H]3CCCC[C@@H]3C2=O)cc1 (relative stereo)
53 | 78 | COC(=O)c1c(F)cc(OCCNC(=O)C2Cc3ccccc3N2S(=O)(=O)c2ccc(-c3cc(C(F)(F)F)ccc3Cl)cc2)cc1F (stereo not given)
54 | 103 to 104 | CNCc1cn(-c2ccccc2)nc1OCc1ccc(OCc2nc(-c3ccco3)oc2C)c(OC)c1
55 | 88 to 90 | CCn1c(COCc2ccccc2)nc(C(C)C)c1Sc1cccc(F)c1
56 | 275 to 277 | Cc1cc(C2=NNC(=O)Cc3cc4c(cc32)OCO4)ccc1[N+](=O)[O-]
57 | 99 to 100 | CCCCOC(=O)c1cccc2c1-c1ccccc1C2=C(C#N)C#N
58 | 242 to 244 | CN1C(=O)c2ccccc2NC(=O)C1c1ccccc1 (stereo not given)
59 | 117 to 119 | O=C(O)c1ccc(OCCc2c(CCNS(=O)(=O)Cc3ccc(Cl)c(Cl)c3)n(C(c3ccccc3)c3ccccc3)c3ccc(Cl)cc23)cc1F
60 | 119 to 120 | COc1ccc2cc3c(CN)nn(C)c3nc2c1
61 | 121 to 122 | CC(=O)OC1CCC2(C)C(=CCC3C2CCC2(C)C(C(C)CCC(OC(C)=O)C(C)(C)OC(C)=O)CCC32)C1 (stereo not given)
62 | 96.5 to 101 | CC(C)OC(=O)N1CCC(c2nc3cc(-c4ccc(S(C)(=O)=O)cc4F)ccc3o2)CC1
63 | 202 to 204 | COc1ccc2c(c1)CC(C(F)(F)F)N2C(=O)Nc1ccc(Oc2cccnc2)nc1 (stereo not given)
64 | 185 to 186 | COc1cc(Oc2ccc(S(C)(=O)=O)nc2)cc2cc(C3=NCC(CC(=O)NC[C@H](C)O)S3)[nH]c12 (stereo not given in full)
65 | 196 | CN1CCC2(CC1)NC(c1ccccc1)c1cc(Cl)ccc1N(C)C2=O (stereo not given)
66 | 156 to 158 | O=C(Nc1ccc(Br)cc1)C(=O)N1CCC(Cc2ccc(F)cc2)CC1
67 | 57 to 58 | CCCCCCCCCCCCCCOC(=O)CNC(=O)OCc1ccccc1
68 | 189 to 194 | COc1cccc(CN(CCC(=O)O)c2nc(NC(=O)Nc3ccccc3OC)nc(Oc3ccc4ccccc4c3)n2)c1
69 | 138 | Cc1nn(C)c(F)c1C(=O)Nc1cccc2c1CCC2(C)C
70 | 274 | Cc1cc(Nc2nc(-c3ccc(Cl)c(Cl)c3)nc3ccccc23)[nH]n1
71 | 149 to 151 | CS(=O)(=O)CN=C(N)NCCSCc1csc(NC(N)=NCC(F)(F)C(F)(F)F)n1
72 | 151 to 153 | Cc1ccccc1-c1nc2c3ccccc3ccn2c1N

Row | melting point [°C] | Structure (SMILES)
73 | 153 | Cc1c(F)cc(C(=O)O)cc1F
74 | 184 | O=[N+]([O-])c1ccccc1SNc1nc(OCc2ccc(F)cc2)ncc1F
75 | 92.5 to 95 | CCCc1c(OCCCCCOc2c(C)c(C)c3c(c2C)CC[C@](C)(C(=O)O)O3)ccc(C(C)=O)c1O
76 | 137 to 142 | CSC1C(=O)Nc2ccc(Oc3cc(F)c(C(F)(F)F)c(Cl)c3)cc21 (stereo not given)
77 | 168 to 169 | CCOC(=O)C1=C(C)N(Cc2ccccc2)C(C)=C(C(=O)OCC)C1c1ccc(Br)cc1
78 | 95.2 to 96 | C#Cc1cn(-c2c(Cl)cc(OC(F)(F)F)cc2Cl)nc1C#N
79 | 282 to 283 | COc1ccc(Cn2c(=O)[nH]c(=O)c3[nH]c(C(C)C)nc32)cc1OC1CCCC1
80 | 230 to 232 | C=CCNc1ccnc2cn[nH]c12
81 | 115 to 116 | COC(=O)Cc1c(Cl)nc(C)nc1Nc1ccccc1
82 | 206 to 207 | COC(=O)c1ccc(-c2nc(-c3ccc(Br)cc3)cs2)cc1
83 | 218 to 222 | CCn1c([N+](=O)[O-])cnc1-c1nnc2ccc(N)nn12
84 | 268 to 270 | Cn1cc(C2=C(c3c4n(c5ccccc35)CCCC(CO)C4)C(=O)NC2=O)c2ccccc21 (stereo not given)
85 | 141 to 142 | CCCN(CCC)[C@@H]1CCc2cc(CNC(=O)c3ccc(Cl)cc3)ccc2C1
86 | 212 to 213 | N#Cc1cc(C#N)cc(Oc2cccc(Oc3cc(C#N)cc(C#N)c3)c2)c1
87 | 205 to 207 | CCn1nc(-c2cccc(F)c2)c(C(C)=O)c(Nc2cccc3ncccc23)c1=O
88 | 178 to 180 | CCOC(=O)CCC(C=Cc1ccc(OC)c(OC)c1)=C1SC(=S)NC1=O
89 | 131 to 133 | CCC[C@@H]1COC(=O)N1c1nc(-c2ccc(C#N)cc2)cs1
90 | 71 to 73 | Brc1cc(-c2ccccc2)on1
91 | 188 to 189 | CCCCc1nc2c(N)nc3cc(OCc4ccccc4)ccc3c2n1CCOc1ccccc1
92 | 117 to 118 | COC1=CC(=O)C2=C(C1=O)C1C=CC2C1 (stereo not given)
93 | 203 to 205 | CCOC(=O)c1nc[nH]c1-c1ccccc1

Row | Structure (SMILES) | melting point [°C]
94 | Cc1n[nH]c2c1C[C@@H]1CN(C)CC[C@H]1C2 (relative stereo) | 160 to 162
95 | O=C(CBr)Nc1cccc(O)c1 | 167 to 170
